This note sets out measurements from ChEMBL document CHEMBL3507680, “University of Dundee, Gates Library screen for HepG2 cell viability”.

This series is described as follows: Human HepG2 cell viability assay in 384 well format. In kind it is toxicity, cell-based. On the set-up: dose 125 nL, time 70.5 hour; cytotoxicity at 70.5 h: concentration not given beside the values. As to conditions: HepG2 cells, read-out: Inhibition.
In the case of `CC[C@H]1CN2CC[C@H]1C[C@@H]2CNCc1ccc(OC(F)(F)F)cc1`, the cytotoxicity at 70.5 h is -7.22%.

Turning to `CN(C)[C@H]1C[C@@H](Cc2cc(-c3ccc(F)cc3)on2)C1(C)C`, the cytotoxicity at 70.5 h is -0.292%. As to `COc1ccc(CN2C[C@@H]3OCC(=O)N(CC(N)=O)[C@@H]3C2)cc1`, the cytotoxicity at 70.5 h was determined as 2.86%.

`O=C(c1cccnc1)N1C[C@@H]2OCC(=O)N(Cc3cccnc3)[C@@H]2C1`: the cytotoxicity at 70.5 h is -3.03%.

`CC(C)NC(=O)NC[C@H]1C[C@@H]2CCN1C[C@@H]2CN(C)c1ccccc1`: the cytotoxicity at 70.5 h is -0.173%.

As for `Cc1nn(-c2ccccn2)c(C)c1[C@@H]1C=C[C@@H](NC(=O)NC(C)C)C1`, the cytotoxicity at 70.5 h came out at 0.445%.

Consider `CCNC(=O)N1C[C@@H]2OCC(=O)N(Cc3cccnc3)[C@@H]2C1`, for which the cytotoxicity at 70.5 h is -1.41%.

On to `CC(=O)Nc1ccc([C@@H](O)[C@H]2COCC(=O)N2CC(C)C)cc1`, for which the cytotoxicity at 70.5 h was 1.58%.

For `COCC(=O)Nc1ccc([C@@H](O)[C@H]2COCC(=O)N2C)cc1`, the cytotoxicity at 70.5 h is -1.45%. In the case of `COC(=O)[C@H]1CN(C(=O)NC(C)C)CCN1C(=O)C1CCCCC1` it was 10.7%; in that of `CC(C)C[C@@H]1N[C@H](C(=O)NCC2CC2)Cc2c[nH]c3cccc1c23`, 0.485%.

As for `CC(C)(C)C(=O)N[C@H]1C[C@@H](Cc2cc(CN3CCOCC3)on2)C1(C)C`, the cytotoxicity at 70.5 h is -6.62%. Then `CC(=O)N[C@H]1C[C@@H](c2nc(-c3ccc4c(c3)OCO4)no2)N(C)C1`, with 2.89%. As to `Cc1ccc(S(=O)(=O)Cc2noc([C@@H]3C[C@@H](O)CN3C)n2)cc1`, the cytotoxicity at 70.5 h is -2.56%.

With `c1ccc(-c2nnc([C@H]3CCN(C4CCC4)C3)o2)cc1`, the cytotoxicity at 70.5 h is 0.134%. In the case of `COc1ccccc1CN1CC[C@H](c2nnc(-c3cncn3C)o2)C1`, the cytotoxicity at 70.5 h was -1.04%. In the case of `c1coc(-c2nnc([C@H]3CCN(Cc4ccc5c(c4)OCO5)C3)o2)c1` it was -6.68%; in that of `O=C1CO[C@H]2CN(Cc3ccc(C(F)(F)F)cc3)C[C@H]2N1`, -2.56%.

In the case of `CC(C)(C)c1coc([C@@H]2COCCN2Cc2c[nH]cn2)n1`, the cytotoxicity at 70.5 h was 2.66%.

On to `CN(C)[C@@H]1CO[C@H](CNC(=O)c2cccs2)[C@H]1O`, for which the cytotoxicity at 70.5 h was -8.01%. Then `CC(=O)N1CCC(N[C@@H]2CO[C@H](CNC(=O)c3cccs3)[C@H]2O)CC1`, with 4.51%; and `O=C(NC[C@H]1OC[C@@H](NCc2ccccn2)[C@@H]1O)N1CCOCC1`, with -10.1%. In the case of `O=C1COC[C@H]([C@H](O)c2ccc(NC(=O)c3cccnc3)cc2)N1`, the cytotoxicity at 70.5 h is -5.64%.

On to `O[C@@H]1C[C@@H](c2nc(-c3ccc(OC(F)(F)F)cc3)no2)N(CC2CC2)C1`, for which the cytotoxicity at 70.5 h was -4.09%.

Turning to `CCNC(=O)NC[C@@H]1C=C(C)[C@H](CC(=O)NCCN(C)C)C[C@H]1C(C)C`, the cytotoxicity at 70.5 h was -0.736%. As for `Cn1cncc1-c1nnc([C@H]2CCN(Cc3cccnc3)C2)o1`, the cytotoxicity at 70.5 h was -2.71%. In the case of `Cn1ccnc1CN1C(=O)CO[C@H]2CN(CCCc3ccccc3)C[C@H]21` it was -1.68%; in that of `CN(C)[C@@H]1CO[C@H](CNC(=O)c2ccccc2)[C@H]1O`, -8.77%; in that of `CC(=O)N1CCC(N2CCN3C(=O)N(Cc4ccccn4)C[C@H]3C2)CC1`, -1.05%. In the case of `N#Cc1ccc(C(=O)N2CCOC[C@H](Oc3cnccn3)C2)cc1` it was -0.682%. As to `COc1ccc(O[C@H]2COCCN(Cc3cccc4c3OCO4)C2)cc1`, the cytotoxicity at 70.5 h amounted to 3.63%. As to `CCNC(=O)NC[C@H]1Cn2c(-c3ccccc3)cnc2CO1`, the cytotoxicity at 70.5 h was -3.79%. In the case of `FC(F)(F)Oc1cccc(CNC[C@H]2Cn3ccnc3CO2)c1` it was 0.704%; in that of `CC(C)N1CCOC[C@H]1c1nc(-c2ccncc2)c[nH]1`, -1.74%; in that of `c1cc(-c2c[nH]c([C@@H]3COCCN3CC3CC3)n2)ccn1`, -1.9%.

For the molecule `COC(=O)[C@H]1CN(S(C)(=O)=O)CCN1S(C)(=O)=O`, the cytotoxicity at 70.5 h was -2.09%. For the molecule `CN(C)[C@@H]1CO[C@H](CNC(=O)C2CCCC2)[C@H]1O`, the cytotoxicity at 70.5 h was determined as 6.3%. In the case of `CC(C)N[C@@H]1CO[C@H](CNC(=O)c2cccs2)[C@H]1O` it was 1.83%; in that of `CC[C@H]1CN(C(=O)c2cccnc2)CC[C@H]1CC(=O)NC1CC1`, -4.36%. Regarding `COCC(=O)N1CCN(C(=O)c2cccs2)C[C@H]1C(=O)OC`, the cytotoxicity at 70.5 h was 1.41%. In the case of `O=C(O)C[C@@H]1CCN(C(=O)C2CCCC2)C[C@@H]1CCN1CCCCC1` it was -1.16%; in that of `CC(=O)N1CC[C@H]2CC(=O)N(C3CCCCC3)CC[C@H]2C1`, -2.68%; in that of `CC(C)(O)c1cn(C[C@H]2C[C@@H]3CCN2C[C@@H]3C(=O)N2CCOCC2)nn1`, -1.36%. `CCOC(=O)COc1ccc(C(C)=O)c(O)c1`: the cytotoxicity at 70.5 h came out at 28.9%. Turning to `Cn1c(=O)c2cc(C(=O)NCCOCC(F)(F)F)ccc2n(C)c1=O`, the cytotoxicity at 70.5 h amounted to 25.9%. As to `COc1cc(CNc2cnn(CC(F)F)c2)ccc1O`, the cytotoxicity at 70.5 h stood at 26.6%. Then `COCc1cc(CNc2cnn(CC(F)F)c2)ccc1OC`, with 1.97%; and `COc1cccc(CNc2cnn(CC(F)F)c2)c1`, with 3.29%; and `COc1ccc(CNc2cnn(CC(F)F)c2)cc1`, with -0.452%. Take `CCn1cc(CNCc2ccc(C(=O)OC)cc2)c(C)n1`: the cytotoxicity at 70.5 h is -0.911%. In the case of `COc1ccc(CNCc2cn(C)nc2C)cc1` it was -2.32%; in that of `COC(=O)N1CC(C)=C(C)CN1C(=O)Nc1ccc(Cl)c(Cl)c1`, 4.31%; in that of `Cc1cc(-n2cncn2)n2ncnc2n1`, -2.11%. Regarding `NC(=O)c1c[nH]nc1NC(=O)c1ccc(Cl)cc1`, the cytotoxicity at 70.5 h is -3.88%. Then `Cc1c(O)oc(-c2ccc(Br)cc2)nc1=O`, with 53.6%; and `CCn1cc(S(=O)(=O)N(C)Cc2c(Br)cnn2CC)c(C)n1`, with 1.71%. On to `CCCn1ncc2c(C(=O)Nc3n[nH]c(SC)n3)cc(C3CC3)nc21`, for which the cytotoxicity at 70.5 h stood at 5.71%.

On to `CNc1cncc(C2CCCN2C(=O)c2ccc3oc(=O)n(C)c3c2)n1` (stereo not given), for which the cytotoxicity at 70.5 h was 17.9%.

As for `CNC(=O)[C@@H](c1ccccc1F)N1CCC[C@H]1C(=O)NC1CCCC1`, the cytotoxicity at 70.5 h is -5.2%. In the case of `CNC(=O)C1(N2CCC[C@H]2C(=O)NC2CC2)CCCCC1` it was -3.89%; in that of `CNC(=O)[C@@H](c1ccccc1OC)N1CCC[C@H]1C(=O)NC1CC1`, -1.71%; in that of `CNC(=O)[C@@H](C1CCCCC1)N1CCC[C@H]1C(=O)N(C)CCN(C)C`, -4.67%.

Take `CNC(=O)[C@@H](CC(C)C)N1CCC[C@H]1C(=O)N(C)Cc1cccnc1`: the cytotoxicity at 70.5 h is -6.49%. Then `CNC(=O)[C@@H](c1ccccc1OC)N1CCC[C@H]1C(=O)NCCN(C)C`, with -5.36%; and `Cc1nc(C)c(CNC[C@@]2(COc3cccnc3)C[C@@H](O)[C@@H](O)C2)s1`, with -4.67%.
